# How the values were obtained:
# Type in all cases: functional
# [1] = Inhibition of LPS-induced mouse B-lymphocyte proliferation. The result is expressed as relative IC50 i.e., IC50 of compound/all-trans retinoic acid IC50.
# [2] = Inhibition of LPS-induced mouse B-lymphocyte proliferation in relation to IC50 of all-trans retinoic acid.
# [3] = Compound was evaluated for its inhibition of LPS-induced mouse B-lymphocyte proliferation
# [4] = Compound was evaluated for its inhibition of LPS-induced mouse B-lymphocyte proliferation. The result is expressed as relative IC50 i.e., IC50 of compound / All Trans Retinoic Acid IC50
SMILES,Relative IC50 [1],Relative IC50 [2],other results
CCCc1cccc2cc(-c3ccc(-c4ccc(C(=O)O)s4)[nH]3)sc12,600,,
CCc1ccc(OC)c2cc(-c3ccc(-c4ccc(C(=O)O)o4)[nH]3)oc12,,>1000,
Cc1ccc(C)c2oc(-c3ccc(-c4ccc(C(=O)O)cc4Br)[nH]3)cc12,18,,
O=C(O)c1ccc2cc(-c3ccc(-c4cc5c(Cl)ccc(Cl)c5s4)[nH]3)ccc2c1,,>1000,
Cc1cc(C)c2oc(-c3ccc(-c4ccc(C(=O)O)cc4)[nH]3)cc2c1C,,,IC50 [3]: 2.2 nM
O=C(O)c1ccc(-c2ccc(-c3cc4cc(Cl)ccc4o3)[nH]2)s1,,>1000,
Cc1ccc(C)c2oc(-c3ccc(-c4ccc(C(=O)O)cc4F)[nH]3)cc12,15,,
Cc1ccc(C)c2oc(-c3ccc(-c4cccc(C(=O)O)c4)[nH]3)cc12,2100,,
CCCc1ccc(OC)c2cc(-c3ccc(-c4ccc(C(=O)O)o4)[nH]3)oc12,,>1000,
Cc1cc(-c2ccc(-c3cc4cc(Cl)cc(Cl)c4o3)[nH]2)c(C)cc1C(=O)O,,>1000,
COc1cc(C(=O)O)ccc1-c1ccc(-c2cc3c(Cl)ccc(Cl)c3o2)[nH]1,210,,
O=C(O)c1ccc(-c2ccc(-c3cc4cc(Cl)ccc4o3)[nH]2)c2ccccc12,,>1000,
O=C(O)c1ccc(-c2ccc(-c3cc4c(Cl)ccc(Cl)c4s3)[nH]2)c2ccccc12,,>1000,
CCc1ccc(OC)c2cc(-c3ccc(-c4ccc(C(=O)O)s4)[nH]3)oc12,,>1000,
O=C(O)c1ccc(-c2ccc(-c3cc4c(Cl)ccc(Cl)c4o3)[nH]2)c(Cl)c1,240,,
CCc1ccc(OC)c2cc(-c3ccc(-c4ccc(C(=O)O)c5ccccc45)[nH]3)oc12,,>1000,
Cc1ccc(Cl)c2sc(-c3ccc(-c4ccc(C(=O)O)c5ccccc45)[nH]3)cc12,,>1000,
Cc1ccc(Cl)c2oc(-c3ccc(-c4ccc5cc(C(=O)O)ccc5c4)[nH]3)cc12,,>1000,
CCCc1ccc(OC)c2cc(-c3ccc(-c4cc(C)c(C(=O)O)cc4C)[nH]3)oc12,,>1000,
O=C(O)c1ccc(-c2ccc(-c3cc4c(Cl)ccc(Cl)c4o3)[nH]2)c(Br)c1,45,,

SMILES,Relative IC50 [1],Relative IC50 [2],other results
O=C(O)c1ccc(-c2ccc(-c3cc4ccc5ccccc5c4o3)[nH]2)c(Br)c1,1500,,
CCCc1cccc2cc(-c3ccc(-c4ccc5cc(C(=O)O)ccc5c4)[nH]3)oc12,,>1000,
CCCc1ccc(OC)c2cc(-c3ccc(-c4ccc(C(=O)O)s4)[nH]3)oc12,,>1000,
Cc1ccc(C)c2oc(-c3ccc(-c4ccc(C(=O)O)c5ccccc45)[nH]3)cc12,,>1000,
Cc1ccc(C)c2oc(-c3ccc(-c4ccc(C(=O)O)s4)[nH]3)cc12,42,,
CCc1ccc(OC)c2cc(-c3ccc(-c4cc(C)c(C(=O)O)cc4C)[nH]3)oc12,,>1000,
O=C(O)c1ccc(-c2ccc(-c3cc4c(Cl)ccc(Cl)c4o3)[nH]2)cc1,,,Relative IC50 [4]: 1.3
Cc1ccc(C)c2oc(-c3ccc(-c4ccc(C(=O)O)o4)[nH]3)cc12,,>1000,
CCc1ccc(OC)c2cc(-c3ccc(-c4ccc(C(=O)O)cc4Br)[nH]3)oc12,140,,
Cc1ccc(C)c2oc(-c3ccc(-c4ccc(C(=O)O)cc4)[nH]3)cc12,,,Relative IC50 [4]: 0.76
Cc1cc(C)c2oc(-c3ccc(-c4ccc(C(=O)O)cc4Br)[nH]3)cc2c1C,42,,
Cc1ccc(Cl)c2sc(-c3ccc(-c4ccc(C(=O)O)s4)[nH]3)cc12,480,,
O=C(O)c1ccc(-c2ccc(-c3cc4cc(Cl)ccc4o3)[nH]2)o1,,>1000,
Cc1ccc(Cl)c2oc(-c3ccc(-c4ccc(C(=O)O)cc4Br)[nH]3)cc12,16,,
O=C(O)c1ccc(-c2ccc(-c3cc4cccc(Cl)c4o3)[nH]2)c(Cl)c1,300,,
O=C(O)c1ccc(-c2ccc(-c3cc4c(Cl)ccc(Cl)c4o3)[nH]2)s1,62,,
Cc1ccc(C)c2oc(-c3ccc(-c4ccc5cc(C(=O)O)ccc5c4)[nH]3)cc12,,>1000,
Cc1cc(C)c2oc(-c3ccc(-c4ccc(C(=O)O)s4)[nH]3)cc2c1C,230,,
Cc1cc(C)c2oc(-c3ccc(-c4ccc(C(=O)O)c5ccccc45)[nH]3)cc2c1C,,>1000,
CCCc1cccc2cc(-c3ccc(-c4cc(C)c(C(=O)O)cc4C)[nH]3)oc12,,>1000,

SMILES,Relative IC50 [1],Relative IC50 [2],other results
O=C(O)c1cccc(-c2ccc(-c3cc4cccc(Cl)c4s3)[nH]2)c1,,>1000,
O=C(O)c1ccc(-c2ccc(-c3cc4cccc(Cl)c4o3)[nH]2)c(F)c1,95,,
Cc1cc(-c2ccc(-c3cc4c(C)c(C)cc(C)c4o3)[nH]2)c(C)cc1C(=O)O,,>1000,
COc1cc(C(=O)O)ccc1-c1ccc(-c2cc3cccc(Cl)c3o2)[nH]1,170,,
CCCc1ccc(OC)c2cc(-c3ccc(-c4ccc(C(=O)O)c5ccccc45)[nH]3)oc12,,>1000,
CCCc1ccc(OC)c2cc(-c3ccc(-c4ccc5cc(C(=O)O)ccc5c4)[nH]3)oc12,,>1000,
CCc1ccc(OC)c2cc(-c3ccc(-c4ccc5cc(C(=O)O)ccc5c4)[nH]3)oc12,,>1000,
Cc1cc(C)c2oc(-c3ccc(-c4ccc5cc(C(=O)O)ccc5c4)[nH]3)cc2c1C,,>1000,
O=C(O)c1ccc(-c2ccc(-c3cc4c(Cl)ccc(Cl)c4o3)[nH]2)c(F)c1,64,,
CCCc1cccc2cc(-c3ccc(-c4ccc(C(=O)O)c5ccccc45)[nH]3)sc12,,>1000,
O=C(O)c1ccc(-c2ccc(-c3cc4cccc(Cl)c4o3)[nH]2)c(Br)c1,31,,
Cc1ccc(C)c2oc(-c3ccc(-c4ccc(C(=O)O)cc4Cl)[nH]3)cc12,23,,
CCCc1cc(OC)cc2cc(-c3ccc(-c4cc(C)c(C(=O)O)cc4C)[nH]3)oc12,,>1000,
Cc1cc(-c2ccc(-c3cc4cc(Cl)ccc4o3)[nH]2)c(C)cc1C(=O)O,,>1000,
COc1cc(C(=O)O)ccc1-c1ccc(-c2cc3c(C)ccc(C)c3o2)[nH]1,47,,
Cc1cc(-c2ccc(-c3cc4c(C)ccc(C)c4o3)[nH]2)c(C)cc1C(=O)O,,>1000,
Cc1cc(C)c2oc(-c3ccc(-c4ccc(C(=O)O)o4)[nH]3)cc2c1C,,>1000,
CC1=C(/C=C/C(C)=C/C=C/C(C)=C/C(=O)O)C(C)(C)CCC1 [TRETINOIN],1,,Relative IC50 [4]: 0.65
